According to patent US20100179128A1, “XANTHINE DERIVATIVES AS SELECTIVE HM74A AGONISTS” (priority 2005, published 2010):

Target: T1, Human HM74A (Homo sapiens, UniProt Q8TDS4)
T1 construct: expressed in transfected cells; P2 membrane fractions
Experiment: [35S]-GTPγS binding assay on HM74A membranes (10 μl and 50 μl formats)
Assay type: biochemical
Conditions: 10 μl and/or 50 μl assay, in which they were tested; +/−0.3 log unit; read-out: pEC50 in the [35S]-GTPγS binding assays (converted)
Description: For transient transfections, HEK293T cells (HEK293 cells stably expressing the SV40 large T-antigen) were maintained in DMEM containing 10% foetal calf serum and 2 mM glutamine. Cells were seeded in 90 mm culture dishes and grown to 60-80% confluence (18-24 h) prior to transfection. Human HM74A (GenBank™ accession number AY148884) was subcloned in to a mammalian expression vector (pcDNA3; Invitrogen) and transfected using Lipofectamine reagent. For transfection, 9 μg of DNA was mixed with 30 μl Lipofectamine in 0.6 ml of Opti-MEM (Life Technologies Inc.) and was incubated at room temperature for 30 min prior to the addition of 1.6 ml of Opti-MEM. Cells were exposed to the Lipofectamine/DNA mixture for 5 h and 6 ml of 20% (v/v) foetal calf serum in DMEM was then added. Cells were harvested 48 h after transfection. Pertussis toxin treatment was carried out by supplementation into media at 50 ngml^−1 for 16 h. All transient transfection studies involved co-transfection of receptor together with the Gi/o G protein, Go1α.
For generation of stable cell lines the above method was used to transfect CHO-K1 cells seeded in six well dishes grown to 30% confluence. These cells were maintained in DMEM F-12 HAM media containing 10% foetal calf serum and 2 mM glutamine. 48 h post-transfection the media was supplemented with 400 μg/ml Geneticin (G418, Gibco) for selection of antibiotic resistant cells. Clonal CHO-K1 cell lines stably expressing HM74A were confirmed by [^35S]-GTPγS binding measurements, following the addition of nicotinic acid.
P2 membrane preparation—Plasma membrane-containing P2 particulate fractions were prepared from cell pastes frozen at −80° C. after harvest. All procedures were carried out at 4° C. Cell pellets were resuspended in 1 ml of 10 mM Tris-HCl and 0.1 mM EDTA, pH 7.5 (buffer A) and by homogenisation for 20 s with a Ultra Turrax followed by passage (5 times) through a 25-gauge needle. Cell lysates were centrifuged at 1,000 g for 10 min in a microcentrifuge to pellet the nuclei and unbroken cells and P2 particulate fractions were recovered by microcentrifugation at 16,000 g for 30 min. P2 particulate fractions were resuspended in buffer A and stored at −80° C. until required.
[^35S]-GTPγS binding—assays were performed at room temperature in 384-well format based on methods described previously, (Wieland, T. and Jakobs, K. H. (1994) Methods Enzymol. 237, 3-13). Briefly, the dilution of standard or test compounds were prepared and added to a 384-well plate in a volume of 10 μl. Membranes (HM74A or HM74) were diluted in assay buffer (20 mM HEPES, 100 mM NaCl, 10 mM MgCl2, pH7.4) supplemented with saponin (60 μg/ml), Leadseeker WGA beads (Amersham; 250 μg/well) and 10 μM GDP, so that the 20 μl volume added to each well contains 5 μg of membranes. [^35S]-GTPγS (1170 Ci/mmol, Amersham) was diluted (1:1500) in assay buffer and 20 μl added to each well. Following the addition of the radioligand, the plates were sealed, pulse spun and incubated for 4 hours at room temperature. At the end of the incubation period the plates were read on a Leadseeker machine (VIEWLUX PLUS; Perkin-Elmer) to determine the levels of specific binding.
These assays were refined by reducing the final assay volume to 10 μl. For this 10 μl assay a revised protocol was used. This involved the use of only 100 nl of standard or test compound per well of a 384-well plate and 1.5 μg membrane and 100 μg Leadseeker WGA beads. For the low volume protocol, membrane, beads and [^35S]-GTPγS were mixed together and then 10 μl of this mix were dispensed to each well. Incubation and plate read were identical for the 10 μl and 50 μl assays.
All exemplified compounds were tested in one or both of the [^35S]-GTPγS binding assays described above (i.e. the 10 μl and 50 μl assays).
Data was analysed by curve fitting as carried out using a Four Parameter Logistical equation using the XC50 software package (max 2 points deleted from any one curve). […]

T1 sequence (Q8TDS4 whole entry): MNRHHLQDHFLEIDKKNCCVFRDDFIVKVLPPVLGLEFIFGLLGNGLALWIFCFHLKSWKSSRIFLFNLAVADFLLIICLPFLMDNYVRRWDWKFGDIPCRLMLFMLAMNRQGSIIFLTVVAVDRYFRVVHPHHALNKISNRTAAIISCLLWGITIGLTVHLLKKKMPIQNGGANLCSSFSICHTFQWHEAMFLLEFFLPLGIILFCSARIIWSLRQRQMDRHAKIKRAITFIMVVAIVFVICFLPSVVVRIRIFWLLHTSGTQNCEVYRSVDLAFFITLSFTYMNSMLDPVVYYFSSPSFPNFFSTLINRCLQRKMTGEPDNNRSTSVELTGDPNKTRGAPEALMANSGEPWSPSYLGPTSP

Structure (SMILES)	EC50 [µM]
O=c1c2[nH]c(Cl)nc2n(CCN2CCCCCC2)c(=O)n1CCCc1nc(Cc2ccc(F)cc2F)no1 [8-chloro-1-(3-{3-[(2,4-difluorophenyl)methyl]-1,2,4-oxadiazol-5-yl}propyl)-3-[2-(hexahydro-1H-azepin-1-yl)ethyl]-3,7-dihydro-1H-purine-2,6-dione]	> 50.1
O=c1c2[nH]c(Cl)nc2n(CCN2CCCCC2)c(=O)n1CCCc1nc(Cc2ccc(F)cc2F)no1 [8-chloro-1-(3-{3-[(2,4-difluorophenyl)methyl]-1,2,4-oxadiazol-5-yl}propyl)-3-[2-(1-piperidinyl)ethyl]-3,7-dihydro-1H-purine-2,6-dione]	> 50.1
CN1CCN(CCCn2c(=O)n(CCCc3nc(Cc4ccc(F)cc4F)no3)c(=O)c3[nH]c(Cl)nc32)CC1 [8-chloro-1-(3-{3-[(2,4-difluorophenyl)methyl]-1,2,4-oxadiazol-5-yl}propyl)-3-[3-(4-methyl-1-piperazinyl)propyl]-3,7-dihydro-1H-purine-2,6-dione]	> 50.1

The next lines start with the values.

EC50 [µM]	Structure (SMILES)
> 50.1	CN(C)CCCn1c(=O)n(CCCc2nc(Cc3ccc(F)cc3F)no2)c(=O)c2[nH]c(Cl)nc21 [8-chloro-1-(3-{3-[(2,4-difluorophenyl)methyl]-1,2,4-oxadiazol-5-yl}propyl)-3-[3-(dimethylamino)propyl]-3,7-dihydro-1H-purine-2,6-dione]
> 50.1	CN(C)C(C)(C)Cn1c(=O)n(CCCc2nc(Cc3ccc(F)cc3F)no2)c(=O)c2[nH]c(Cl)nc21 [8-chloro-1-(3-{3-[(2,4-difluorophenyl)methyl]-1,2,4-oxadiazol-5-yl}propyl)-3-[2-(dimethylamino)-2-methylpropyl]-3,7-dihydro-1H-purine-2,6-dione]
> 50.1	O=c1c2[nH]c(Cl)nc2n(CCN2CCCC2)c(=O)n1CCCc1nc(Cc2ccc(F)cc2F)no1 [8-chloro-1-(3-{3-[(2,4-difluorophenyl)methyl]-1,2,4-oxadiazol-5-yl}propyl)-3-[2-(1-pyrrolidinyl)ethyl]-3,7-dihydro-1H-purine-2,6-dione]
> 50.1	CN(C)CCn1c(=O)n(CCCc2nc(Cc3ccc(F)cc3F)no2)c(=O)c2[nH]c(Cl)nc21 [8-chloro-1-(3-{3-[(2,4-difluorophenyl)methyl]-1,2,4-oxadiazol-5-yl}propyl)-3-[2-(dimethylamino)ethyl]-3,7-dihydro-1H-purine-2,6-dione]
